We go through 2 compounds from patent US10717762B2, “Abiraterone derivative and formulations thereof” (Zhuhai Beihai Biotech Co., Ltd., priority 2016, dated 2020).

A short description of series [1]: Solubility in water (description). To be noted: ABOA, white to off-white solid. The series is classed as physicochemical.
The next series concerns the target CYP3A4 liver enzyme (Homo sapiens, UniProt P08684). The note with it: Zytiga Full Prescribing Information, Section 7.2; cited from earlier work.
The conditions of series [2]: cited from earlier work.
For series [3] the following is noted: product insert (Zytiga Full Prescribing Information, Section 11); cited from earlier work.

Read-outs that look alike come from different tables or passages of the source.

Chain of CYP3A4 liver enzyme (P08684 whole entry): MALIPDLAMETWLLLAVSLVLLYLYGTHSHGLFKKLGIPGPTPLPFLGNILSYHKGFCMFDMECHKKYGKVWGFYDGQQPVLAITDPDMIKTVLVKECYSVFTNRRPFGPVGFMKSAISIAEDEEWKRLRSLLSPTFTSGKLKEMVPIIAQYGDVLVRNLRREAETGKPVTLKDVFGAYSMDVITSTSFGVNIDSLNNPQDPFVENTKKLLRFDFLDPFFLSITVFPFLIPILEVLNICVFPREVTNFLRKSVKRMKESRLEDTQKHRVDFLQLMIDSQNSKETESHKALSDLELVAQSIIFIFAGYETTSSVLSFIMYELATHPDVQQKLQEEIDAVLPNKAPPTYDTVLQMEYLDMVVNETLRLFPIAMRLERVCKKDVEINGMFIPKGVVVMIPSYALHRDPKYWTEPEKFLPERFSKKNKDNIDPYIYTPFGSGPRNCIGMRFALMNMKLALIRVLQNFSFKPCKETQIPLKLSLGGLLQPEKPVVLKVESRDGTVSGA

Take `C[C@]12CC[C@H](OC(=O)C(=O)O)CC1=CC[C@@H]1[C@@H]2CC[C@]2(C)C(c3cccnc3)=CC[C@@H]12` [ABOA, 2-(((3S,8R,9S,10R,13S,14S)-10,13-dimethyl-17-(pyridin-3-yl)-2,3,4,7,8,9,10,11,12,13,14,15-dodecahydro-1H-cyclopenta[a]phenanthren-3-yl)oxy)-2-oxoacetic acid]: the solubility in water result in series [1] is “practically insoluble in water”.

Take `CC(=O)O[C@H]1CC[C@@]2(C)C(=CC[C@@H]3[C@@H]2CC[C@]2(C)C(c4cccnc4)=CC[C@@H]32)C1` [abiraterone acetate]: the CYP3A4 substrate entry at CYP3A4 liver enzyme is “substrate of the CYP3A4 liver enzyme”. In addition, the food-effect result in series [2] (depending on fat content of the meal) is listed as “five- to ten-fold”. Besides, the administered drug excreted in series [2] (oral, low bioavailability from poor absorption) is reported as 77%. Besides, the solubility in water entry in series [3] is recorded as “practically insoluble in water”.
